Test results taken from patent US20200239957A1, “PREDICTION AND TREATMENT OF HEART FAILURE” (The Regents of the University of Colorado, a body corporate, priority 2013, published 2020).
Blank lines part the entries; values can stand above or below the molecule they belong to.

Experiments:
β-ARs = details: heart failure patients, continuous intravenous treatment; cited from earlier work
[1] = heart failure patients, continuous intravenous treatment, cited from earlier work
rtPDE3A = rtPDE3A (Homo sapiens, UniProt Q14432); assay: PDE3 activity assay, cAMP hydrolysis with and without cilostazol; type: biochemical; details: 0.1 μmol/L cilostazol; read-out: inhibition of rtPDE3A, submaximal (printed as IC44)
Chain of rtPDE3A (Q14432 whole entry): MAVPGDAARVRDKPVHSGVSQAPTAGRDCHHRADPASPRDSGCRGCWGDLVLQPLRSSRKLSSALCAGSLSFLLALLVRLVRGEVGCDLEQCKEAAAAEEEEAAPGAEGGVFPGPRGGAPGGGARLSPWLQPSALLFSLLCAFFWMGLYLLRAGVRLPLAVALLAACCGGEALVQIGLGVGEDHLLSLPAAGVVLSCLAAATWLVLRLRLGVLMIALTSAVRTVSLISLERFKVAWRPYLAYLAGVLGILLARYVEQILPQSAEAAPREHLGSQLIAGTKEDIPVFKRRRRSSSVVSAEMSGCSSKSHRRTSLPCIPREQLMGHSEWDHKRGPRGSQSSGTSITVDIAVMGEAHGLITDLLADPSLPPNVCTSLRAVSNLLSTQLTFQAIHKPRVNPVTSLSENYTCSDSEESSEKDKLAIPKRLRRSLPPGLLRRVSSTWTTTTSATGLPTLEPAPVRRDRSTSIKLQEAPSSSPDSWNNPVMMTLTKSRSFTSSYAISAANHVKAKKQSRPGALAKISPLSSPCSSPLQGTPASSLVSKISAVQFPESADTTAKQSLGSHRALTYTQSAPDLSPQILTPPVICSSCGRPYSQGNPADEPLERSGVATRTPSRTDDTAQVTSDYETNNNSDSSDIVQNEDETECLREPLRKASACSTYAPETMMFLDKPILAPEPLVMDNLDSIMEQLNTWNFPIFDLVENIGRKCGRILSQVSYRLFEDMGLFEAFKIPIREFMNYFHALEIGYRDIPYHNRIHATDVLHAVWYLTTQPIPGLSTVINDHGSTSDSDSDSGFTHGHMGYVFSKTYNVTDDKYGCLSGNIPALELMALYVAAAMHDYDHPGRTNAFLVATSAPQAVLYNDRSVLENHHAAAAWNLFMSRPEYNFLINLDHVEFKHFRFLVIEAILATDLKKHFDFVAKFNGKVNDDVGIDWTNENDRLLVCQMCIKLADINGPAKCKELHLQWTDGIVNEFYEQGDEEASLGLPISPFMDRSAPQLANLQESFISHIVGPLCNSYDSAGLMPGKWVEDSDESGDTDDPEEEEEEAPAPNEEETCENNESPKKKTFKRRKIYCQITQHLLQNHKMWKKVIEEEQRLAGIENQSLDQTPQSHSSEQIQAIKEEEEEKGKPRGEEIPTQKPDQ
Method: cAMP-hydrolytic activity was quantified according to the method of Kincaid and Manganiello (1988) as described in detail previously (Movesian et al., 1991). Briefly, microsomal fractions were added to a reaction mixture containing 0.3 mol/L NaHEPES, 0.6 mmol/L EGTA, […] MgCl2 (pH 7.5) and 0.1 μmol/L [^3H]cAMP (Perkin Elmer, Boston, Mass.). cAMP hydrolysis occurred for 10 minutes at 30° C., then the reaction was stopped by the addition of 10.1 mmol/L unlabeled cAMP and […] unlabeled 5′AMP in 0.25 mol/L HCl. The reaction mixture was neutralized with NaOH. [^3H]5′AMP was converted to [^3H]adenosine by incubation with Crotalus atrox venom (30 mg/ml) for 30 minutes at 30° C. The reaction mixture was then applied to QAE-Sephadex columns, and [^3H]adenosine was eluted with water. Cyclic AMP hydrolysis in pmol/min/mg was determined by measuring [^3H]adenosine in the eluent. PDE activity was measured in the presence and absence of 0.1 μmol/L cilostazol, a concentration that inhibits rtPDE3A submaximally (IC44); PDE3 activity was calculated by dividing the difference in activity in the presence and absence of cilostazol by the fractional inhibition of PDE3 activity at this concentration.

PDE3A promoter = PDE3A promoter (INS/DEL) luciferase reporter in transfected NRVMs; type: cell-based, rat; details: for luciferase activity of the DEL promoter construct: DEL construct containing the CRE; for luciferase activity of the DEL promoter construct / up-regulation of PDE3A expression, INS construct (luciferase): 1 μmol/L dibutyryl cAMP or 5 μmol/L enoximone for 48 hours
Method: Neonatal rat ventricular myocytes (NRVMs) were prepared from the hearts of 2-day-old rat pups by enzymatic digestion as described (Simpson et al., 1982; Waspe et al., 1990; Singh et al., 2000).
Cloning of the PDE3A promoter region was performed using PCR primers that amplified the −1434/+440 region of the human promoter that contains the INS/DEL genotype. The resulting fragment was cloned in the Promega pGL3-basic vector using MluI and BglII sites as previously described (Sucharov et al., 2003). Cloning of the construct that lacks the cAMP response element (CRE) was done by amplifying the −1066/+440 region of the PDE3A promoter downstream from the CRE site.
Firefly luciferase plasmid DNA was transfected using the Lonza system as previously described (Sucharov et al., 2008). […] Luciferase activity was determined as previously described (Sucharov et al., 2003).

SMILES: Nc1cc(-c2ccncc2)c[nH]c1=O [amrinone]
β-ARs in lymphocytes of treated patients (β-ARs): Down-regulation and desensitization
cardiac output at 24 hours ([1]; 24 hours): increase
cardiac output by 72 hours ([1]; 72 hours): return to baseline values

inhibition at 0.1 µM (rtPDE3A): 44%
SMILES: O=C1CCc2cc(OCCCCc3nnnn3C3CCCCC3)ccc2N1 [cilostazol]

luciferase activity of the DEL promoter construct (PDE3A promoter): increased luciferase activity
cAMP-induced increase in promoter activity, DEL construct with CRE sequence deleted (PDE3A promoter; DEL construct lacking the CRE (-1066/+440), 48 hours): prevented
up-regulation of PDE3A expression, INS construct (luciferase) (PDE3A promoter): no evidence of up-regulation
SMILES: CCCC(=O)Nc1ncnc2c1ncn2[C@@H]1O[C@@H]2COP(=O)(O)O[C@H]2[C@H]1OC(=O)CCC [dibutyryl cAMP]

luciferase activity of the DEL promoter construct (PDE3A promoter): increased luciferase activity
up-regulation of PDE3A expression, INS construct (luciferase) (PDE3A promoter): no evidence of up-regulation
SMILES: CSc1ccc(C(=O)c2[nH]c(=O)[nH]c2C)cc1 [enoximone]
